# Reference: patent US9695155B2, “Herbicidal substituted pyrimidinyloxy benzene compounds” (E. I. DU PONT DE NEMOURS AND COMPANY, priority 2013, dated 2017)
# Assays:
# [1] = tested on: blackgrass; assay: Test D preemergence; assay type: in vivo, Alopecurus myosuroides; conditions: Alopecurus myosuroides, pre-emergence
# How it was run: (§1)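 Visual rating vs untreated controls, 0 = no effect, 100 = complete control, taken 7–21 d after treatment. Pre: silt loam soil. Post: potting medium, plants 2–18 cm, 1–4 leaf. Formulation: non-phytotoxic solvent mix + surfactant.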
# [2] = tested on: kochia; assay: Test D postemergence; assay type: in vivo, Kochia scoparia; conditions: Bassia scoparia, post-emergence
# How it was run: as §1
# [3] = tested on: windgrass; assay: Test D postemergence; assay type: in vivo, Apera spica-venti; conditions: Apera spica-venti, post-emergence
# How it was run: as §1
# [4] = tested on: cocklebur; assay: Test E preemergence; assay type: in vivo, Xanthium strumarium
# How it was run: (§2)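 Test chemicals formulated in a non-phytotoxic solvent mixture containing a surfactant were applied preemergence to seeds in silt loam soil or postemergence to plants at the 1- to 4-leaf stage in potting mix. After 14 to 21 days in a greenhouse, injury was visually rated against controls on a 0-100 scale (0 = no effect, 100 = complete control).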
# [5] = tested on: wild buckwheat; assay: Test D postemergence; assay type: in vivo, Polygonum convolvulus; conditions: Fallopia convolvulus, post-emergence, Postemergence, scale 0 to 100 (0 no effect, 100 complete control), read-out: Plant response rating, Buckwheat, Wild
# How it was run: as §1
# [6] = tested on: canarygrass; assay: Test D postemergence; assay type: in vivo, Phalaris minor; conditions: Phalaris minor, post-emergence
# How it was run: as §1
# [7] = tested on: wild mustard; assay: Test D postemergence; assay type: in vivo, Sinapis arvensis; conditions: Brassica, post-emergence
# How it was run: as §1
# [8] = tested on: soybean; assay: Test E postemergence; assay type: in vivo, Glycine max
# How it was run: as §2
# [9] = tested on: galium; assay: Test D postemergence; assay type: in vivo, Galium aparine; conditions: Galium, post-emergence
# How it was run: as §1
# [10] = tested on: green foxtail; assay: Test D preemergence; assay type: in vivo, Setaria viridis; conditions: Setaria viridis, pre-emergence
# How it was run: as §1
# [11] = tested on: lambsquarters; assay: Test D postemergence; assay type: in vivo, Chenopodium album; conditions: Chenopodium album, post-emergence
# How it was run: as §1
# [12] = tested on: bromegrass, downy; assay: Test D postemergence; assay type: in vivo, Bromus tectorum; conditions: Bromus tectorum, post-emergence, Postemergence, scale 0 to 100 (0 no effect, 100 complete control), read-out: Plant response rating, Bromegrass, Downy
# How it was run: as §1
# [13] = tested on: chickweed; assay: Test D preemergence; assay type: in vivo, Stellaria media; conditions: Stellaria media, pre-emergence
# How it was run: as §1
structure (smiles),measurement,setting,value
"Clc1cnc(Oc2ccccc2-n2cc(Br)cn2)nc1 [Compound 7, 2-[2-(4-bromo-1H-pyrazol-1-yl)phenoxy]-5-chloropyrimidine]",pest or weed control at 16 g/ha,"[1]; 16 g ai/ha, scale 0 (no effect) to 100 (complete control), read-out: Plant response rating, Blackgrass",0%
same,pest or weed control at 31 g/ha,"[1]; 31 g ai/ha, scale 0-100, read-out: Plant response rating, Blackgrass",0%
same,pest or weed control at 62 g/ha,"[1]; 62 g ai/ha, scale 0-100, read-out: Plant response rating, Blackgrass",0%
same,pest or weed control at 125 g/ha,"[1]; 125 g ai/ha, scale 0-100, read-out: Plant response rating, Blackgrass",0%
same,pest or weed control at 250 g/ha,"[1]; 250 g ai/ha, scale 0-100, read-out: Plant response rating, Blackgrass",15%
same,pest or weed control at 16 g/ha,"[2]; 16 g ai/ha, scale 0-100, read-out: Plant response rating, Kochia",30%
same,pest or weed control at 31 g/ha,"[2]; 31 g ai/ha, scale 0 to 100 (0 no effect, 100 complete control), read-out: Plant response rating, Kochia",70%
same,pest or weed control at 62 g/ha,"[2]; 62 g ai/ha, scale 0 to 100 (0 no effect, 100 complete control), read-out: Plant response rating, Kochia",100%
same,pest or weed control at 125 g/ha,"[2]; 125 g ai/ha, scale 0 to 100 (0 no effect, 100 complete control), read-out: Plant response rating, Kochia",100%
same,pest or weed control at 250 g/ha,"[2]; 250 g ai/ha, scale 0 to 100 (0 no effect, 100 complete control), read-out: Plant response rating, Kochia",100%
same,pest or weed control at 16 g/ha,"[3]; 16 g ai/ha, scale 0-100, read-out: Plant response rating, Windgrass",0%
same,pest or weed control at 31 g/ha,"[3]; 31 g ai/ha, scale 0 to 100 (0 no effect, 100 complete control), read-out: Plant response rating, Windgrass",0%
same,pest or weed control at 62 g/ha,"[3]; 62 g ai/ha, scale 0 to 100 (0 no effect, 100 complete control), read-out: Plant response rating, Windgrass",0%
same,pest or weed control at 125 g/ha,"[3]; 125 g ai/ha, scale 0 to 100 (0 no effect, 100 complete control), read-out: Plant response rating, Windgrass",10%
same,pest or weed control at 250 g/ha,"[3]; 250 g ai/ha, scale 0 to 100 (0 no effect, 100 complete control), read-out: Plant response rating, Windgrass",25%
same,"Plant response rating, Cocklebur","[4]; 125 g ai/ha, scale 0 to 100, 0 no effect, 100 complete control",0
same,pest or weed control at 16 g/ha,[5]; 16 g ai/ha,20%
same,pest or weed control at 31 g/ha,[5]; 31 g ai/ha,30%
same,pest or weed control at 62 g/ha,[5]; 62 g ai/ha,60%
same,pest or weed control at 125 g/ha,[5]; 125 g ai/ha,85%
same,pest or weed control at 250 g/ha,[5]; 250 g ai/ha,100%
same,pest or weed control at 16 g/ha,"[6]; 16 g ai/ha, scale 0-100, read-out: Plant response rating, Canarygrass",0%
same,pest or weed control at 31 g/ha,"[6]; 31 g ai/ha, scale 0 to 100 (0 no effect, 100 complete control), read-out: Plant response rating, Canarygrass",0%
same,pest or weed control at 62 g/ha,"[6]; 62 g ai/ha, scale 0 to 100 (0 no effect, 100 complete control), read-out: Plant response rating, Canarygrass",5%
same,pest or weed control at 125 g/ha,"[6]; 125 g ai/ha, scale 0 to 100 (0 no effect, 100 complete control), read-out: Plant response rating, Canarygrass",10%
same,pest or weed control at 250 g/ha,"[6]; 250 g ai/ha, scale 0 to 100 (0 no effect, 100 complete control), read-out: Plant response rating, Canarygrass",25%
same,pest or weed control at 16 g/ha,"[7]; 16 g ai/ha, scale 0-100, read-out: Plant response rating, Mustard, Wild",20%
same,pest or weed control at 31 g/ha,"[7]; 31 g ai/ha, scale 0 to 100 (0 no effect, 100 complete control), read-out: Plant response rating, Mustard, Wild",50%
same,pest or weed control at 62 g/ha,"[7]; 62 g ai/ha, scale 0 to 100 (0 no effect, 100 complete control), read-out: Plant response rating, Mustard, Wild",75%
same,pest or weed control at 125 g/ha,"[7]; 125 g ai/ha, scale 0 to 100 (0 no effect, 100 complete control), read-out: Plant response rating, Mustard, Wild",95%
same,pest or weed control at 250 g/ha,"[7]; 250 g ai/ha, scale 0 to 100 (0 no effect, 100 complete control), read-out: Plant response rating, Mustard, Wild",98%
same,"plant response (crop injury) rating, soybean, 0-100 scale at 31 g/ha","[8]; Glycine max, post-emergence, Postemergence, 31 g ai/ha, scale 0 to 100",90%
same,"plant response (crop injury) rating, soybean, 0-100 scale at 62 g/ha","[8]; Glycine max, post-emergence, Postemergence, 62 g ai/ha, scale 0 to 100",98%
same,"plant response (crop injury) rating, soybean, 0-100 scale at 125 g/ha","[8]; Glycine max, post-emergence, Postemergence, 125 g ai/ha, scale 0 to 100",98%
same,"plant response (crop injury) rating, soybean, 0-100 scale at 8 g/ha","[8]; Glycine max, post-emergence, postemergence, 8 g ai/ha, scale 0 to 100, 0 no effect, 100 complete control",60%
same,"plant response (crop injury) rating, soybean, 0-100 scale at 16 g/ha","[8]; Glycine max, post-emergence, postemergence, 16 g ai/ha, scale 0 to 100, 0 no effect, 100 complete control",80%
same,pest or weed control at 16 g/ha,"[9]; 16 g ai/ha, scale 0-100, read-out: Plant response rating, Galium",20%
same,pest or weed control at 31 g/ha,"[9]; 31 g ai/ha, scale 0 to 100 (0 no effect, 100 complete control), read-out: Plant response rating, Galium",40%
same,pest or weed control at 62 g/ha,"[9]; 62 g ai/ha, scale 0 to 100 (0 no effect, 100 complete control), read-out: Plant response rating, Galium",70%
same,pest or weed control at 125 g/ha,"[9]; 125 g ai/ha, scale 0 to 100 (0 no effect, 100 complete control), read-out: Plant response rating, Galium",80%
same,pest or weed control at 250 g/ha,"[9]; 250 g ai/ha, scale 0 to 100 (0 no effect, 100 complete control), read-out: Plant response rating, Galium",90%
same,pest or weed control at 16 g/ha,"[10]; 16 g ai/ha, scale 0 (no effect) to 100 (complete control), read-out: Plant response rating, Foxtail, Green",0%
same,pest or weed control at 31 g/ha,"[10]; 31 g ai/ha, scale 0-100, read-out: Plant response rating, Foxtail, Green",0%
same,pest or weed control at 62 g/ha,"[10]; 62 g ai/ha, scale 0-100, read-out: Plant response rating, Foxtail, Green",0%
same,pest or weed control at 125 g/ha,"[10]; 125 g ai/ha, scale 0-100, read-out: Plant response rating, Foxtail, Green",0%
same,pest or weed control at 250 g/ha,"[10]; 250 g ai/ha, scale 0-100, read-out: Plant response rating, Foxtail, Green",20%
same,pest or weed control at 16 g/ha,"[11]; 16 g ai/ha, scale 0-100, read-out: Plant response rating, Lambsquarters",70%
same,pest or weed control at 31 g/ha,"[11]; 31 g ai/ha, scale 0 to 100 (0 no effect, 100 complete control), read-out: Plant response rating, Lambsquarters",70%
same,pest or weed control at 62 g/ha,"[11]; 62 g ai/ha, scale 0 to 100 (0 no effect, 100 complete control), read-out: Plant response rating, Lambsquarters",80%
same,pest or weed control at 125 g/ha,"[11]; 125 g ai/ha, scale 0 to 100 (0 no effect, 100 complete control), read-out: Plant response rating, Lambsquarters",90%
same,pest or weed control at 250 g/ha,"[11]; 250 g ai/ha, scale 0 to 100 (0 no effect, 100 complete control), read-out: Plant response rating, Lambsquarters",100%
same,pest or weed control at 16 g/ha,[12]; 16 g ai/ha,0%
same,pest or weed control at 31 g/ha,[12]; 31 g ai/ha,0%
same,pest or weed control at 62 g/ha,[12]; 62 g ai/ha,0%
same,pest or weed control at 125 g/ha,[12]; 125 g ai/ha,5%
same,pest or weed control at 250 g/ha,[12]; 250 g ai/ha,5%
same,pest or weed control at 16 g/ha,"[13]; 16 g ai/ha, scale 0 (no effect) to 100 (complete control), read-out: Plant response rating, Chickweed",0%
same,pest or weed control at 31 g/ha,"[13]; 31 g ai/ha, scale 0-100, read-out: Plant response rating, Chickweed",0%
same,pest or weed control at 62 g/ha,"[13]; 62 g ai/ha, scale 0-100, read-out: Plant response rating, Chickweed",10%
same,pest or weed control at 125 g/ha,"[13]; 125 g ai/ha, scale 0-100, read-out: Plant response rating, Chickweed",90%
same,pest or weed control at 250 g/ha,"[13]; 250 g ai/ha, scale 0-100, read-out: Plant response rating, Chickweed",95%
FC(F)(F)c1cnn(-c2ccccc2Oc2ncc(Cl)cn2)c1 [Compound 16],Cocklebur plant response rating,"[4]; 16 g ai/ha, scale 0 to 100 (0 no effect, 100 complete control)",0
same,"Plant response rating, Soybean","[8]; Postemergence, 31 g ai/ha, scale 0 to 100",30
same,"Plant response rating, Soybean","[8]; Postemergence, 62 g ai/ha, scale 0 to 100",80
same,"Plant response rating, Soybean","[8]; Postemergence, 125 g ai/ha, scale 0 to 100",95
same,"Plant response rating, Soybean","[8]; Postemergence, 250 g ai/ha, scale 0 to 100",95
same,"Plant response rating, Soybean","[8]; postemergence, 16 g ai/ha, scale 0 to 100, 0 no effect, 100 complete control",15
